Patent publication US20070161592A1, “Method of treating fear” (priority 2005, published 2007)
“Also recorded” adds a separate entry of the source.

Key:
[1] = tested on: male Sprague Dawley rats; assay: Rat fear conditioning (contextual and auditory fear memory); assay type: in vivo
Source text: For one site drug infusion, 23-guage guide cannulas were implanted bilaterally into the dorsal hippocampus (CA1 region: 3.2 mm posterior to Bregma, ±1.5˜1.7 mm lateral from the midline, 1.7 mm beneath the surface of the skull). For two sites drug infusion, guide cannulas were implanted bilaterally into the dorsal hippocampus (first injection site: 2.8 mm posterior to Bregma, ±1.5 mm lateral from the midline, 1.7 mm beneath the surface of the skull; second injection site: 3.8 mm posterior to Bregma, ±1.8˜2.2 mm lateral from the midline, 1.3 mm beneath the surface of the skull). The dummy cannulas, cut 0.5 mm longer than guide cannulas, were inserted into the guide cannulas to prevent clogging and reduce the risk of infection. Rats were given at least 5 days to recover before experimentation. A 30-gauge injection cannula that was 1.5 mm lower than the guide was used for intra-hippocampal infusion. 1.0 μl Ro25-6981 (0.1 μg /μl) or saline was delivered bilaterally at the rate of 0.5 μl/min using a pump. After infusion, the cannulas were left in place for an additional 2 min to allow the solution to diffuse away from the cannula tip. Fifteen minutes later, rats were conditioned by one pairing of a tone (2.2 kHz, 96 dB, 30 s) and a foot shock (2.0 mA, 2 s) that terminated at the same time as the tone. […] Rats were returned to the conditioning chamber and allowed to stay in the chamber for 3-min without footshock.
However, the effects of local hippocampal injections of NR2B antagonists on fear conditioning have not been examined. Ro25-6981 (5 μg in 0.5 μl) was bilaterally injected into dorsal hippocampi (FIG. 8B) before conditional training. […] The NR2B specific antagonist was also injected into the ACC and hippocampus of rats and contextual and auditory fear memory was then measured. […] Hippocampal injections of a higher dose of Ro25-6981 (5 μg in 1 μl per side) bilaterally or multiple injections of the same dose (2 per side) were then tested to determine their affect on either contextual or auditory fear memory.

[2] = tested on: NR2B; assay: Western blot of NR2B in ACC after siRNA electroporation; assay type: in vivo, mouse; conditions: four days after electroporation
Experimental: Equal amounts of protein from the ACC and hippocampus were separated and electrotransferred onto PDVF membranes (Invitrogen), which were probed with anti-NR2A, anti-NR2B (Chemicon), and anti-PSD-95 (ABR) and with β-actin (Sigma) as a loading control. The membranes were incubated with horseradish peroxidase-conjugated secondary antibodies (anti-mouse IgG for PSD-95 and anti-rabbit IgG for the other primary antibodies), and bands were visualized using an ECL system (Perkin Elmer). Synaptosomal membrane fractions (LP1) were prepared as previously described (Dunah and Standaert, 2001) and solubilized using 1% SDS in TEVP buffer: 10 mM Tris-HCl, pH 7.4, 1 mM EDTA, 1 mM EGTA, 1× protease inhibitor cocktail (Sigma), and 1× phosphatase inhibitor cocktail 1 and 2 (Sigma). […] Results are expressed as means±SEM. […]
To inhibit NR2B expression specifically in the prefrontal cortex, including the ACC, siRNA was bilaterally delivered against NR2B with a reporter plasmid encoding EGFP by microelectroporation (Wei et al., 2003) (FIG. 8A). […] The expression levels of other NMDAR subunits (NR2A and NR1) and AMPA receptor subunit GluR1 were measured, and actin was used as a control in the ACCs of NR2B siRNA and control siRNA electroporated mice.

[3] = hippocampal injections 5 μg in 1 μl per side, single or multiple (2 per side)

Compound | contextual memory ([1]; 0.1 μg in 1 μl bilaterally into dorsal hippocampus before fear conditioning) | auditory fear memory [1, 3] | contextual fear memory [1, 3] | contextual fear memory ([1]; in 1 μl per side bilaterally into the ACC before conditioning, tested one day after training) | auditory fear memory ([1]; injected in the ACC) | auditory fear memory ([1]; injected in the hippocampus) | NR2B expression compared to control siRNA electroporated control [2] [%]
C[C@@H](CN1CCC(Cc2ccccc2)CC1)[C@@H](O)c1ccc(O)cc1 [Ro25-6981] | did not impair contextual fear memory; also recorded: did not produce a significant impairment | Neither single nor multiple injections of Ro25-6981 produced a significant impairment | Neither single nor multiple injections of Ro25-6981 produced a significant impairment | impaired contextual fear memory; also recorded: significant reduction in contextual fear memory | did not affect auditory fear memory | did not affect auditory fear memory | 
NR2B siRNA: siRNA corresponding to NR2B, sense 5′-GGAUGAGUCCUCCAUGUUCtt-3′, antisense 5′-GAACAUGGAGGACUCAUCCtt-3′, Silencer Pre-designed siRNA ID #61879, Ambion (sense GGAUGAGUCCUCCAUGUUCTT; antisense GAACAUGGAGGACUCAUCCTT; chemistry not given here) |  |  |  |  |  |  | 64.8±4.6
